Data taken from US9145397B2, “Process for the preparation of 1-(2-methyl-4-(2,3,4,5-tetrahydro-1-benzazepin-1-ylcarbonyl) benzylcarbamoyl)-L-proline-N, N-dimethylamide” (Vantia Limited, priority 2011, dated 2015).

Tests used:
vasopressin V2 receptor = molecular target: T1, vasopressin V2 receptor (Rattus norvegicus, UniProt Q00788); experiment: in vivo assay described in PCT/GB2001/000023 (inhibition of urine output); details: at 1 hour; dosed at 1 mg/Kg
T1 construct: from tissue; host or cells: whole animal, in vivo (endogenous receptor)
T1 sequence (Q00788 whole entry): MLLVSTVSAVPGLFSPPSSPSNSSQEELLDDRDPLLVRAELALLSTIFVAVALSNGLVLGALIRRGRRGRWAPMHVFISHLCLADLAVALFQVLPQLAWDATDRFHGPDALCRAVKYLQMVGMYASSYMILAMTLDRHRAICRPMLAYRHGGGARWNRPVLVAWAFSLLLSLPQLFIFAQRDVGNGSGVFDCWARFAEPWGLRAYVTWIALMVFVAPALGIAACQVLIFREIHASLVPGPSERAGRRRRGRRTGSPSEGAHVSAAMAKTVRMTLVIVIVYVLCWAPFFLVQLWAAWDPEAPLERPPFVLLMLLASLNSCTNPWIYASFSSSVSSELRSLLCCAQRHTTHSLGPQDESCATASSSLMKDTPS
Source text: The ability of the crystalline form of the invention to agonise the vasopressin V2 receptor may be determined using the in vivo assay described in PCT/GB2001/000023.

[1] = Gravimetric Vapour Sorption Analysis (GVA); assay type: physicochemical; details: amorphous solid prepared as in PCT/GB2001/000023
Source text: 1-(2-methyl-4-(2,3,4,5-tetrahydro-1-benzazepin-1-ylcarbonyl)benzylcarbamoyl)-L-proline-N,N-dimethylamide was first described in international patent application WO 2001/049682 (PCT/GB2001/000023). […] Moreover, scanning electron micrographs (SEM) of this amorphous form show it to consist of irregular, predominantly large (>5 μm in diameter) aggregates. These properties of the amorphous form render it less suitable for use in a manufacturing process.

Compound | inhibition of urine output (vasopressin V2 receptor) [%] | hygroscopicity by Gravimetric Vapour Sorption Analysis (GVA) [1]
Cc1cc(C(=O)N2CCCCc3ccccc32)ccc1CNC(=O)N1CCC[C@H]1C(=O)N(C)C [1-(2-methyl-4-(2,3,4,5-tetrahydro-1-benzazepin-1-ylcarbonyl)benzylcarbamoyl)-L-proline-N,N-dimethylamide] | 82 | –
Cc1cc(C(=O)N2CCCCc3ccccc32)ccc1CNC(=O)N1CCC[C@H]1C(=O)N(C)C [amorphous form, 1-(2-methyl-4-(2,3,4,5-tetrahydro-1-benzazepin-1-ylcarbonyl)benzylcarbamoyl)-L-proline-N,N-dimethylamide] | – | hygroscopic
